# Assay results from US20230295096A1, “PYRAZOLE CARBOXAMIDE COMPOUNDS FOR TREATMENT OF HBV” (ASSEMBLY BIOSCIENCES, INC., priority 2020, published 2023).
# pEC50: −log10 of the molar value.
# System: HBV
# Test: Viral load production from HepAD38 cells, qPCR of the HBV core sequence in supernatant
# Assay type: cell-based
# Settings: HepAD38 cells, 5 days, HBV DNA in supernatant by qPCR; Table 1 ranges; read-out: Activity (viral load lowering EC50)
# Description: HepAD38 cells grown in a T-150 flask (Corning, cat#: 430825) with Growth Medium (DMEM/F12 (1:1) (Hyclone, cat#: SH30023.02), 1X Pen/Strep (Invitrogen, cat#: 15140-122), 10% FBS (Tissue Culture Biologics, cat#: 101), 250 µg/mL G418 (Alfa Aesar, cat#: J62671), 1 µg/mL Tetracycline (Teknova, cat#: T3320)) were detached with 0.25% trypsin-EDTA (Invitrogen, cat#: 25200-056). Tetracycline-free treatment medium (15 mL DMEM/F12 (1:1) 1× Pen/step, with 2% FBS, Tet-system approved (Clontech, cat#: 631106) were then added to mix, transferred into a 50 ml conical tube (Falcon, cat#: 21008-918,) and spun at 1300 rpm for 5 min. Pelleted cells were then re-suspended/washed with 50 mL of 1X DPBS (Invitrogen, cat#: 14190-136) 2 times and 50 mL treatment medium twice. HepAD38 cells were then re-suspended with 10 mL of treatment medium, syringed and counted. Wells of 96-well clear bottom TC plate (Corning, cat#: 3904,) were seeded at 50.000 cells/well in 180 µL of treatment medium, and 20 µL of either 10% DMSO (Sigma, cat#: D4540) as controls or a 10X solution of test compounds in 10% DMSO in treatment media was added for a final compound concentration starting at 10 µM, and plates were incubated in 5% CO2 incubator at 37° C. for 5 days.
# Subsequently viral load production was assayed by quantitative PCR (qPCR) of the HBV core sequence. PCR reaction mixture containing forward primers HBV-f 5′-CTGTGCCTTGGGTGGCTTT-3′ (IDT DNA), Reverse primers HBV-r 5′-[…]-3′ (IDT DNA), Fluorescent TaqMan^tm Probes HBV-probe 5′-FAM/AGCTCCAAA/ZEN/[…]/3IABkFQ-3′ (IDT DNA), 10 µL/well of PerfeCTa® qPCR ToughMix® (Quanta Biosciences, Cat#: 95114-05 K), and 6 µL/well of DEPC water (Alfa Aesar, cat#: J62087) was prepared. Four µL of supernatant was added to 16 µL of the reaction mixture in a qPCR plate (Applied Biosytems, Cat#: 4309849), sealed with a film (Applied Biosystems, Cat#: 4311971), centrifuged for a few seconds, and subsequently run on an Applied Biosystems VIIA7. The PCR mixture was incubated at 45° C. for 5 min, then 95° C. for 10 min, followed by 40 cycles of 10 seconds at 95° C. and 20 seconds at 60° C. Viral load was quantified against known HBV DNA standards by using ViiA™ 7 Software. Viral load in the supernatant from wells with treated cells were compared against viral load in supernatant from DMSO control wells (≥ 3 per plate). Cell viability assay was performed with CellTiter-Glo Luminescent Cell Viability Assay (Promega, cat#: G7573) with modification. Mixed appropriate amount of CellTiter-Glo (CTG) 1X DPBS in a 1:1 ratio, added 100 uL of the mixture to each well followed completely removal of all supernatant in each well without touching cell surface. Incubated the plate at room temperature for 10 min on an orbital shaker, and then read the plate with a plate reader (TECAN M1000 or Envision). EC50 or CC50 values were calculated through curve-fitting of the four-parameter nonlinear-logistic-regression model (GraphPad Prism or Dotmatics). CC50 values were all >10 µM.
row,Compound,pEC50
1,3-Amino-N-(3-chloro-4-fluorophenyl)-5-(5-hydroxy-5-(1-methyl-1H-imidazol-4-yl)octahydropentalen-2-yl)-2λ^2-pyrazole-4-carboxamide [Example 20],> 8.00
2,"Cn1nc(C2CC3CC(CNC(=O)C4CC4)CC3C2)c(C(=O)Nc2ccc(F)c(Cl)c2)c1N (single isomer, unassigned) [Example 42, 5-Amino-N-(3-chloro-4-fluorophenyl)-3-(5-(cyclopropanecarboxamidomethyl)octahydropentalen-2-yl)-1-methyl-1H-pyrazole-4-carboxamide]",> 8.00
3,"CN(C)C(=O)NCC1CC2CC(c3nn(C)c(N)c3C(=O)Nc3ccc(F)c(Cl)c3)CC2C1 (single isomer, unassigned) [Example 43, 5-Amino-N-(3-chloro-4-fluorophenyl)-3-(5-((3,3-dimethylureido)methyl)octahydropentalen-2-yl)-1-methyl-1H-pyrazole-4-carboxamide]",> 8.00
4,"Cn1nc(C2CC3CC(CNC(=O)C(C)(C)O)CC3C2)c(C(=O)Nc2ccc(F)c(Cl)c2)c1N (single isomer, unassigned) [Example 44, 5-Amino-N-(3-chloro-4-fluorophenyl)-3-(5-((2-hydroxy-2-methylpropanamido)methyl)octahydropentalen-2-yl)-1-methyl-1H-pyrazole-4-carboxamide]",> 8.00
5,"C[C@@H](NC(=O)C1CC2CC(c3nn(C)c(N)c3C(=O)Nc3ccc(F)c(Cl)c3)CC2C1)C(F)(F)F (single isomer, unassigned) [Example 102]",7.30 to 8.00
6,"CC(NC(=O)N1CC2CC(c3nn(C)c(N)c3C(=O)Nc3ccc(F)c(Cl)c3)CC2C1)C(F)(F)F (single isomer, unassigned) [Example 129, 5-(5-Amino-4-((3-chloro-4-fluorophenyl)carbamoyl)-1-methyl-1H-pyrazol-3-yl)-N-(1,1,1-trifluoropropan-2-yl)hexahydrocyclopenta[c]pyrrole-2(1H)-carboxamide]",6.30 to 7.30
7,"Cn1nc(C2CC3CC(O)(CNc4ncc(C(F)F)cn4)CC3C2)c(C(=O)Nc2ccc(F)c(Cl)c2)c1N (single isomer, unassigned) [Example 202A]",7.30 to 8.00
8,"Cn1nc(C2CC3CC(O)(CNc4ncc(C(F)F)cn4)CC3C2)c(C(=O)Nc2ccc(F)c(Cl)c2)c1N (single isomer, unassigned) [Example 202B]",6.30 to 7.30
9,"Cn1nc(C(F)(F)F)cc1NCC1(O)CC2CC(c3nn(C)c(N)c3C(=O)Nc3ccc(F)c(Cl)c3)CC2C1 (single isomer, unassigned) [Example 203B]",7.30 to 8.00
10,"Cn1nc(C2CC3CC(O)(CNc4cc(N)ncn4)CC3C2)c(C(=O)Nc2ccc(F)c(Cl)c2)c1N (single isomer, unassigned) [Example 205A]",> 8.00
11,"Cn1nc(C2CC3CC(O)(CNc4cc(N)ncn4)CC3C2)c(C(=O)Nc2ccc(F)c(Cl)c2)c1N (single isomer, unassigned) [Example 205B]",6.30 to 7.30

# Same assay, conditions: HepAD38 cells, 5 days, HBV DNA in supernatant by qPCR; Table 2 ranges; read-out: VL HepAD38 EC50 range
row,Compound,pEC50
1,"Cn1nc(C2CC3CC(O)C(c4ccccc4)C3C2)c(C(=O)Nc2ccc(F)c(Cl)c2)c1N (single isomer, unassigned) [Example 142, 5-Amino-N-(3-chloro-4-fluorophenyl)-3-(5-hydroxy-4-phenyloctahydropentalen-2-yl)-1-methyl-1H-pyrazole-4-carboxamide]",> 7.00
2,"Cn1nc(C2CC3CC(c4ccccc4)C(O)C3C2)c(C(=O)Nc2ccc(F)c(Cl)c2)c1N (single isomer, unassigned) [Example 143, 5-Amino-N-(3-chloro-4-fluorophenyl)-3-(4-hydroxy-5-phenyloctahydropentalen-2-yl)-1-methyl-1H-pyrazole-4-carboxamide]",> 7.00
3,"Cn1nc(C2CC3CC(c4ccccc4)C(O)C3C2)c(C(=O)Nc2ccc(F)c(Cl)c2)c1N (single isomer, unassigned) [Example 144, 5-Amino-N-(3-chloro-4-fluorophenyl)-3-(4-hydroxy-5-phenyloctahydropentalen-2-yl)-1-methyl-1H-pyrazole-4-carboxamide]",> 7.00

# Same assay, conditions: Hepatitis B virus, HePAD38, 120 h, HepAD38 cells, 5 days, HBV DNA in supernatant by qPCR; Table 1 ranges; read-out: Activity (viral load lowering EC50)
row,Compound,pEC50
1,"Cn1nc(C2CC3CC(CNC(=O)C(C)(C)O)CC3C2)c(C(=O)Nc2ccc(F)c(Cl)c2)c1N (single isomer, unassigned) [Example 39, 5-Amino-N-(3-chloro-4-fluorophenyl)-3-(5-((2-hydroxy-2-methylpropanamido)methyl)octahydropentalen-2-yl)-1-methyl-1H-pyrazole-4-carboxamide]",> 8.00
2,"Cn1nc(C2CC3CC(CNC(=O)C4CC4)CC3C2)c(C(=O)Nc2ccc(F)c(Cl)c2)c1N (single isomer, unassigned) [Example 40, 5-Amino-N-(3-chloro-4-fluorophenyl)-3-(5-(cyclopropanecarboxamidomethyl)octahydropentalen-2-yl)-1-methyl-1H-pyrazole-4-carboxamide]",> 8.00
3,"CN(C)C(=O)NCC1CC2CC(c3nn(C)c(N)c3C(=O)Nc3ccc(F)c(Cl)c3)CC2C1 (single isomer, unassigned) [Example 41, 5-Amino-N-(3-chloro-4-fluorophenyl)-3-(5-((3,3-dimethylureido)methyl)octahydropentalen-2-yl)-1-methyl-1H-pyrazole-4-carboxamide]",> 8.00
4,"C[C@@H](NC(=O)C1CC2CC(c3nn(C)c(N)c3C(=O)Nc3ccc(F)c(Cl)c3)CC2C1)C(F)(F)F (single isomer, unassigned) [Example 101]",7.30 to 8.00
5,"C[C@H](NC(=O)C1CC2CC(c3nn(C)c(N)c3C(=O)Nc3ccc(F)c(Cl)c3)CC2C1)C(F)(F)F (single isomer, unassigned) [Example 103]",7.30 to 8.00
6,"CC(NC(=O)N1CC2CC(c3nn(C)c(N)c3C(=O)Nc3ccc(F)c(Cl)c3)CC2C1)C(F)(F)F (single isomer, unassigned) [Example 128, 5-(5-Amino-4-((3-chloro-4-fluorophenyl)carbamoyl)-1-methyl-1H-pyrazol-3-yl)-N-(1,1,1-trifluoropropan-2-yl)hexahydrocyclopenta[c]pyrrole-2(1H)-carboxamide]",6.30 to 7.30
7,"Cn1nc(C(F)(F)F)cc1NCC1(O)CC2CC(c3nn(C)c(N)c3C(=O)Nc3ccc(F)c(Cl)c3)CC2C1 (single isomer, unassigned) [Example 203A]",> 8.00
8,"Cn1nc([N+](=O)[O-])cc1C1(O)CC2CC(c3nn(C)c(N)c3C(=O)Nc3ccc(F)c(Cl)c3)CC2C1 [Compd. 4-2, 5-amino-N-(3-chloro-4-fluorophenyl)-3-((2 s,3aR,5r,6aS)-5-hydroxy-5-(1-methyl-3-nitro-1H-pyrazol-5-yl)octahydropentalen-2-yl)-1-methyl-1H-pyrazole-4-carboxamide]",> 8.00

# Same assay, conditions: Hepatitis B virus, HePAD38, 120 h, HepAD38 cells, 5 days, HBV DNA in supernatant by qPCR; Table 2 ranges; read-out: VL HepAD38 EC50 range
row,Compound,pEC50
1,"Cn1nc(C2CC3CC(O)C(c4ccccc4)C3C2)c(C(=O)Nc2ccc(F)c(Cl)c2)c1N (single isomer, unassigned) [Example 141, 5-Amino-N-(3-chloro-4-fluorophenyl)-3-(5-hydroxy-4-phenyloctahydropentalen-2-yl)-1-methyl-1H-pyrazole-4-carboxamide]",> 7.00
2,"Cn1nc(C2CC3CC(c4ccccc4)C(O)C3C2)c(C(=O)Nc2ccc(F)c(Cl)c2)c1N (single isomer, unassigned) [Example 145, 5-Amino-N-(3-chloro-4-fluorophenyl)-3-(4-hydroxy-5-phenyloctahydropentalen-2-yl)-1-methyl-1H-pyrazole-4-carboxamide]",> 7.00
